# In patent publication US9404080B2, “Human taste cells capable of continuous proliferation” (B.R.A.I.N. BIOTECHNOLOGY RESEARCH AND INFORMATION NETWORK AG, priority 2012, dated 2016):
# “Also recorded” adds a separate entry of the source.
# Assays:
# [1] = tested on: human taste cells BR-HTC8; assay: Fluo-4 fluorescent calcium imaging assay in BR-HTC8; format: cell-based; conditions: for Fluo-4 assay BR-HTC8: dose-dependent increase in intracellular calcium on stimulation with the cognate bitter molecule of the TAS2R named in the row; for change of Fluo4-fluorescence / intracellular calcium on addition of the test molecule: BR-HTC8, increasing concentrations in KH-buffer with Ca2+; on Fluo-4 assay BR-HTC8: key: + indicates that the analysis was successful and that the mRNA was detected by RT-PCR or that stimulation of human taste cells with the respective taste molecule resulted in a dose-dependent increase in intracellular calcium or decrease in cellular membrane potential
# Method: Before the assay, cells are maintained in HTC medium for at least 48 hours as described in Example 1. Cells are then trypsinized with accutase (e.g. PAA, L11-007) or TrypLE (e.g. Gibco, 12563) and seeded into poly-D-lysine coated 96-well assay plates (e.g. Corning) at a density of 15,000 cells/well in 100 μl HTC medium.
# After 24 hours, the cells (still in 100 μl medium) are stained by addition of 100 μl of Fluo-4 staining solution, which consists of KH buffer (10 mM HEPES pH7.4 containing 118 mM NaCl, 4.7 mM KCl, 4.2 mM NaHCO3, 1.2 mM KH2PO4, 1.2 mM MgSO4, 1.3 mM CaCl2) containing 4 μM Fluo-4 (Molecular Probes) and incubation for 1 hour at 37° C. Final Fluo-4 concentration in the staining solution/medium mixture is 2 μM. Staining solution is then replaced by 80 μl KH-buffer per well and plates are transferred into a fluorescence microplate reader to monitor changes in Ca^2+-dependent fluorescence (excitation 488 nm, emission 530 nm) after the addition of 20 μl KH-buffer supplemented with the test molecule under investigation. The test molecule was added 16 seconds after starting the scan and baseline recording, mixed twice, and then recording continued for additional 44 seconds. Data points of a total of 18 reads were collected. Data analysis/Data recording—Calcium mobilization was measured as the change of peak fluorescence (ΔF) over the baseline level (F). Data were expressed as the mean S.E. of the ΔF/F value of replicated independent samples. Data analysis was done with software provided by the manufacturer of the microplate reader (e.g. Molecular Devices).
# (§1) To test, whether stimulation of human taste cells with these taste molecules leads to changes in intracellular calcium the Fluo-4 fluorescent calcium imaging assay was performed as described above. Non-taste cells including HEK293 cells and non-lingual, proliferating primary cells isolated from the oral cavity served as a control and were treated equally throughout the procedure. Changes in Ca^2+-dependent Fluo-4 fluorescence were recorded on a Molecular Devices Fluorescence microplate reader. Measurement was started by addition of increasing concentrations of the taste molecules in KH-buffer to the cells. KH-buffer served as negative control and KH-buffer containing 1 μM ionomycin served as a positive control. […] Calcium signals for each test molecule are depicted as Relative Fluorescence Units (RFU), which means that calcium mobilization in response to taste molecules was calculated dF/F0, with dF is (peak fluorescence F1−baseline fluorescence F0). […] Data were obtained from several independent experiments and performed in triplicates.
# In order to perform to the Fluo-4 fluorescent calcium imaging experiment in the absence of extracellular Ca^2+ the procedure was conducted as described above, however, the KH-buffer was prepared without addition of Ca^2+. Measurement was started by addition of increasing concentrations of the taste molecules in KH-buffer without Ca^2+ to the cells. KH-buffer without Ca^2+ served as negative control and KH-buffer without Ca^2+ containing 1 μM ionomycin served as a positive control.
# To test, whether stimulation of human taste cells with oxytocin leads to changes in intracellular calcium the Fluo-4 fluorescent calcium imaging assay was performed as described above in Example 5. Briefly, the human taste cells were seeded in 96-well plates and stained with 2 μM of the calcium-sensitive fluorescence dye Fluo4 in HTC/KH buffer medium for one hour at 37° C. with subsequent replacement of the staining solution with KH-buffer. Non-taste cells including HEK293 cells and non-lingual, proliferating primary cells isolated from the oral cavity served as a control and were treated equally throughout the procedure. Changes in Ca^2+-dependent Fluo-4 fluorescence were recorded on a Molecular Devices Fluorescence microplate reader.
# [2] = tested on: BR-HTC38 cells; assay: Fluo-4 fluorescent calcium imaging assay in TAS2R38-transduced BR-HTC38; format: cell-based, human; conditions: BR-HTC38 (TAS2R38 expressed) vs BR-HTC8
# Method: Changes in Ca^2+-dependent Fluo-4 fluorescence were recorded on a Molecular Devices fluorescence microplate reader. Measurement was started by addition of increasing concentrations of the taste molecules in KH-buffer to the cells. KH-buffer served as negative control and KH-buffer containing 1 μM ionomycin served as a positive control. […] Calcium signals for each test molecule are depicted as Relative Fluorescence Units (RFU), which means that calcium mobilization in response to taste molecules was calculated dF/F0, with dF is (peak fluorescence F1−baseline fluorescence F0). […] Data were obtained from several independent experiments and performed in triplicates.
# [3] = tested on: Non-taste cells including HEK293 cells, Cal33 cells, and non-lingual, proliferating primary cells isolated from the oral cavity; assay: Fluo-4 fluorescent calcium imaging assay in non-taste control cells; format: cell-based, human
# Method: Briefly, human taste cells were seeded in 96-well plates and stained with Fluo4-AM. Non-taste cells including HEK293 cells, Cal33 cells, and non-lingual, proliferating primary cells isolated from the oral cavity served as a control. Changes in Ca^2+-dependent Fluo-4 fluorescence were recorded on a Molecular Devices fluorescence microplate reader. Measurement was started by addition of increasing concentrations of the taste molecules. […] Calcium signals for each test molecule are depicted as relative fluorescence units (RFU).
# as §1
# [4] = tested on: human taste cells BR-HTC8; assay: FLIPR fluorescent membrane potential (FMP) imaging assay in BR-HTC8; format: cell-based; conditions: for change of cellular membrane potential (FLIPR FMP dye fluorescence) on addition of the test molecule: BR-HTC8, increasing concentrations in KH-buffer; for FMP assay BR-HTC8: dose-dependent decrease in cellular membrane potential on stimulation with the cognate bitter molecule of the TAS2R; on FMP assay BR-HTC8: key: + indicates that the analysis was successful and that the mRNA was detected by RT-PCR or that stimulation of human taste cells with the respective taste molecule resulted in a dose-dependent increase in intracellular calcium or decrease in cellular membrane potential
# Method: This cell depolarization was measured by using voltage-sensitive dyes including FLIPR fluorescent membrane potential (FMP) dye (Molecular Devices R8123). Before the assay, cells were maintained in HTC medium for at least 48 hours as described above in Example 1. Cells were then trypsinized with accutase (e.g. PAA, L11-007) or TrypLE (e.g. Gibco, 12563) and seeded into poly-D-lysine coated 96-well assay plates (Corning) at a density of 15,000 cells/well in […].
# After 24 hours, medium was removed and the cells are washed once with 100 μl KH buffer (10 mM HEPES pH7.4 containing 118 mM NaCl, 4.7 mM KCl, 4.2 mM NaHCO3, 1.2 mM KH2PO4, 1.2 mM MgSO4, 1.3 mM CaCl2) and then stained with 200 μl KH buffer containing FLIPR FMP dye according instructions of the manufacturer […] and incubation for 2 hours at 37° C. The plates were then transferred into a fluorescence microplate reader to monitor changes in membrane potential-dependent fluorescence (excitation 530 nm, emission 565 nm) after the addition of 50 μl KH-buffer supplemented with the test molecule under investigation. The test molecule was added 16 seconds after starting the scan and baseline recording, mixed twice, and then recording continued for additional 74 seconds. Data points of a total of 35 reads were collected.
# Data analysis/Data recording—Changes of the membrane potential was measured as the change of peak fluorescence (ΔF) over the baseline level (F). Data were expressed as the mean S.E. of the ΔF/F value of replicated independent samples. Data analysis was done with software provided by the manufacturer of the microplate reader (Molecular Devices).
# (§2) To test, whether stimulation of human taste cells with taste molecules leads to changes in cellular membrane potential the FLIPR fluorescent membrane potential assay was performed as described above. Non-taste cells including HEK293 cells and non-lingual, proliferating primary cells isolated from the oral cavity served as a control and were treated equally throughout the procedure. Changes in membrane potential were recorded on a Molecular Devices Fluorescence microplate reader. Measurement was started by addition of increasing concentrations of the taste molecules in KH-buffer to the cells. KH-buffer served as negative control and KH-buffer containing 4 μM FCCP (e.g. Sigma, C2920) served as a positive control. […] Data were obtained from several independent experiments and performed in triplicates.
# as §2, with “This cell depolarization can be measured by using voltage-sensitive dyes including FLIPR fluorescent membrane potential (FMP) dye (Molecular Devices R8123) as described above in Example 6. To” for “To”, “oxytocin” for “taste molecules”, “oxytocin” for “the taste molecules”
smiles,measurement,setting,value
CC[N+](CC)(CC(=O)Nc1c(C)cccc1C)Cc1ccccc1.O=C([O-])c1ccccc1 [Denatonium benzoat],Fluo-4 assay BR-HTC8,[1],+
O=C1NS(=O)(=O)c2ccccc21 [Saccharin],change of Fluo4-fluorescence / intracellular calcium on addition of the test molecule,[1],dose-dependent increase of Fluo4-fluorescence
same,Fluo-4 calcium response in the absence of extracellular Ca2+,"[1]; KH-buffer without Ca2+, BR-HTC8, molecule alone",cannot trigger a Ca^2+ response; also recorded: did not trigger increase of intracellular Ca^2+; also recorded: no response
same,increase of intracellular calcium in response to salicin when combined with saccharin,"[1]; absence of extracellular calcium, increasing salicin with four fixed concentrations of saccharin",strongly enhanced
same,Fluo-4 assay BR-HTC8,[1],+
same,dose-dependent Fluo-4 calcium response in BR-HTC38 compared with parental BR-HTC8,[2],enhanced
same,increase of Fluo4-fluorescence in control cells,[3],not in control cells
CC[C@H](C)[C@@H]1NC(=O)[C@H](Cc2ccc(O)cc2)NC(=O)[C@@H](N)CSSC[C@@H](C(=O)N2CCC[C@H]2C(=O)N[C@@H](CC(C)C)C(=O)NCC(N)=O)NC(=O)[C@H](CC(N)=O)NC(=O)[C@H](CCC(N)=O)NC1=O [oxytocin],change of Fluo4-fluorescence / intracellular calcium on addition of the test molecule,[1],dose-dependent increase of Fluo4-fluorescence
same,change of cellular membrane potential (FLIPR FMP dye fluorescence) on addition of the test molecule,[4],dose-dependent decrease of membrane potential
COc1ccc2c(c1)CC[C@@H]1[C@@H]2CC[C@]2(C)[C@@H](NCCCCCCN3C(=O)C=CC3=O)CC[C@@H]12 [U73122],calcium response to saccharin in the presence of U73122,"[1]; 5 μM U73122, BR-HTC8",not reduced
same,calcium signalling on stimulation with salicin in the presence of U73122,"[1]; 5 μM U73122, BR-HTC8",inhibited
CCCCCCCC/C=C\CCCCCCCC(=O)O [oleic acid],change of Fluo4-fluorescence / intracellular calcium on addition of the test molecule,[1],dose-dependent increase of Fluo4-fluorescence
same,increase of Fluo4-fluorescence in control cells,[3],not in control cells
"Nc1ncnc2c1ncn2[C@@H]1O[C@H](COP(=O)(O)OP(=O)(O)OP(=O)(O)O)[C@@H](O)[C@H]1O [ATP, adenosine triphosphate]",change of Fluo4-fluorescence / intracellular calcium on addition of the test molecule,[1],increase in intracellular calcium
same,change of cellular membrane potential (FLIPR FMP dye fluorescence) on addition of the test molecule,[4],dose-dependent decrease in cellular membrane potential; also recorded: dose-dependent decrease of membrane potential
CC1COc2c(N3CCN(C)CC3)c(F)cc3c(=O)c(C(=O)O)cn1c23 (centres unmarked) [Ofloxacine],Fluo-4 assay BR-HTC8,[1],+
CCN(CC)CCCC(C)Nc1ccnc2cc(Cl)ccc12 (centres unmarked) [Chloroquine],FMP assay BR-HTC8,[4],+
COc1cccc2c1cc([N+](=O)[O-])c1c(C(=O)O)cc3c(c12)OCO3 [Aristolochic acid],change of Fluo4-fluorescence / intracellular calcium on addition of the test molecule,[1],dose-dependent increase of Fluo4-fluorescence
same,Fluo-4 assay BR-HTC8,[1],+
same,change of cellular membrane potential (FLIPR FMP dye fluorescence) on addition of the test molecule,[4],dose-dependent decrease in cellular membrane potential; also recorded: dose-dependent decrease of membrane potential
same,FMP assay BR-HTC8,[4],+
same,increase of Fluo4-fluorescence in control cells,[3],not in control cells
CCCCC/C=C\C/C=C\CCCCCCCC(=O)O [linoleic acid],change of Fluo4-fluorescence / intracellular calcium on addition of the test molecule,[1],dose-dependent increase of Fluo4-fluorescence
same,increase of Fluo4-fluorescence in control cells,[3],not in control cells
O=S(=O)(NCCNC/C=C/c1ccc(Br)cc1)c1cccc2cnccc12 [H89],calcium response to saccharin in the presence of H89,"[1]; 0.5 μM H89, BR-HTC8",not reduced
same,calcium signalling on stimulation with salicin in the presence of H89,"[1]; 0.5 μM H89, BR-HTC8",slightly inhibited
O=C(N[C@H](CO)[C@H](O)c1ccc([N+](=O)[O-])cc1)C(Cl)Cl [Chloramphenicole],Fluo-4 assay BR-HTC8,[1],+
"NC(=S)Nc1ccccc1 [PTC, phenylthiocarbamide]",change of Fluo4-fluorescence / intracellular calcium on addition of the test molecule,[1],dose-dependent increase of Fluo4-fluorescence
same,Fluo-4 assay BR-HTC8,[1],+
same,FMP assay BR-HTC8,[4],+
same,dose-dependent Fluo-4 calcium response in BR-HTC38 compared with parental BR-HTC8,[2],enhanced
O=C(O[C@@H]1Cc2c(O)cc(O)cc2O[C@@H]1c1cc(O)c(O)c(O)c1)c1cc(O)c(O)c(O)c1 [EGCG],Fluo-4 assay BR-HTC8,[1],+
CC1=CC(=O)[N-]S(=O)(=O)O1.[K+] [Acesulfame K],change of Fluo4-fluorescence / intracellular calcium on addition of the test molecule,[1],do not trigger an increase in intracellular calcium
same,Fluo-4 assay BR-HTC8,[1],+
same,change of cellular membrane potential (FLIPR FMP dye fluorescence) on addition of the test molecule,[4],decrease in cellular membrane potential
same,FMP assay BR-HTC8,[4],+
"COc1cc(OC2CCN(C(C)=O)CC2)ccc1C(=O)N1CCC(N2C(=O)OCc3ccccc32)CC1 [L371,257]","calcium signalling on stimulation with oxytocin in the presence of L371,257","[1]; 40 nM L371,257, BR-HTC8",inhibited
Cc1ccccc1C(OCCN(C)C)c1ccccc1 (centres unmarked) [Orphenadrine],Fluo-4 assay BR-HTC8,[1],+
